The results in this text go back to EP1285920A1, “C10 Ester sustituted taxanes as antitumor agents” (Florida State University Research Foundation, Inc., priority 2001, dated 2003).

The test system of the first assay is HCT116. Description: In Vitro cytotoxicity measured by the cell colony formation assay. The class given is cell-based, human. Conditions: HCT116 colony formation; 72 h with drug, colonies counted after 7 days; ID50 = concentration producing 50% inhibition of colony formation; read-out: IN VITRO ID 50 HCT116. The method, then:
Four hundred cells (HCT116) were plated in 60 mm Petri dishes containing 2.7 mL of medium (modified McCoy's 5a medium containing 10% fetal bovine serum and 100 units/mL penicillin and […] streptomycin). The cells were incubated in a CO2 incubator at 37 °C for 5 h for attachment to the bottom of Petri dishes. The compounds identified in Example 2 were made up fresh in medium at ten times the final concentration, and then 0.3 mL of this stock solution was added to the 2.7 mL of medium in the dish. The cells were then incubated with drugs for 72 h at 37 °C. At the end of incubation the drug-containing media were decanted, the dishes were rinsed with 4 mL of Hank's Balance Salt Solution (HBSS), 5 mL of fresh medium was added, and the dishes were returned to the incubator for colony formation. The cell colonies were counted using a colony counter after incubation for 7 days.
As to `CC=CC(=O)OC1C(=O)C2(C)C(O)CC3OCC3(OC(C)=O)C2C(OC(=O)c2ccccc2)C2(O)CC(OC(=O)C(O)C(NC(=O)OC(C)(C)C)c3cccnc3)C(C)=C1C2(C)C` (centres unmarked) [Compound 2353], the IC50 was under 10 nM. Same read-out and setting: next, `CC=CC(=O)NC(c1cccs1)C(O)C(=O)OC1CC2(O)C(OC(=O)c3ccccc3)C3C4(OC(C)=O)COC4CC(O)C3(C)C(=O)C(OC(=O)CCC)C(=C1C)C2(C)C` (centres unmarked) [Compound 3595]: under 1 nM.

The same assay, now with this note: Homo sapiens, HCT-116; read-out: IN VITRO ID 50 HCT116.
On to `CC(=O)O[C@@]12CO[C@@H]1C[C@H](O)[C@@]1(C)C(=O)[C@H](OC(=O)c3cccs3)C3=C(C)[C@@H](OC(=O)[C@H](O)[C@@H](NC(=O)OC(C)(C)C)c4cccnc4)C[C@@](O)([C@@H](OC(=O)c4ccccc4)[C@H]21)C3(C)C` [Compound 1948], for which the IC50 is under 10 nM. On the same count and under the same terms, next, `CCCC(=O)N[C@@H](c1cccs1)[C@@H](O)C(=O)O[C@H]1C[C@@]2(O)[C@@H](OC(=O)c3ccccc3)[C@@H]3[C@]4(OC(C)=O)CO[C@@H]4C[C@H](O)[C@@]3(C)C(=O)[C@H](OC(=O)C3CC3)C(=C1C)C2(C)C` [Compound 3132]: under 1 nM; `CC(=O)O[C@@]12CO[C@@H]1C[C@H](O)[C@@]1(C)C(=O)[C@H](OC(=O)C=C(C)C)C3=C(C)[C@@H](OC(=O)[C@H](O)[C@@H](NC(=O)OC(C)(C)C)c4cccs4)C[C@@](O)([C@@H](OC(=O)c4ccccc4)[C@H]21)C3(C)C` [Compound 2503]: under 1 nM; `CC(=O)O[C@@]12CO[C@@H]1C[C@H](O)[C@@]1(C)C(=O)[C@H](OC(=O)c3cccs3)C3=C(C)[C@@H](OC(=O)[C@H](O)[C@@H](NC(=O)OC(C)(C)C)c4cccs4)C[C@@](O)([C@@H](OC(=O)c4ccccc4)[C@H]21)C3(C)C` [Compound 1900]: under 1 nM.

Consider `CC(=O)O[C@@]12CO[C@@H]1C[C@H](O)[C@@]1(C)C(=O)[C@H](OC(=O)C3CC3)C3=C(C)[C@@H](OC(=O)[C@H](O)[C@H](C=C(C)C)NC(=O)OCC(C)C)C[C@@](O)([C@@H](OC(=O)c4ccccc4)[C@H]21)C3(C)C` [Compound 4720], for which the IC50 was under 10 nM.

Take `CCCC(=O)O[C@H]1C(=O)[C@@]2(C)[C@H]([C@H](OC(=O)c3ccccc3)[C@]3(O)C[C@H](OC(=O)[C@H](O)[C@@H](NC(=O)OC(C)C)c4ccco4)C(C)=C1C3(C)C)[C@]1(OC(C)=O)CO[C@@H]1C[C@@H]2O` [Compound 3417]: the IC50 was under 1 nM.

In the case of `CC(=O)O[C@@]12CO[C@@H]1C[C@H](O)[C@@]1(C)C(=O)[C@H](OC(=O)C3CC3)C3=C(C)[C@@H](OC(=O)[C@H](O)[C@@H](NC(=O)OC(C)(C)C)C4CC4)C[C@@](O)([C@@H](OC(=O)c4ccccc4)[C@H]21)C3(C)C` [Compound 0860], the IC50 was under 1 nM.

Turning to `CCCC(=O)O[C@H]1C(=O)[C@@]2(C)[C@H]([C@H](OC(=O)c3ccccc3)[C@]3(O)C[C@H](OC(=O)[C@H](O)[C@@H](NC(=O)OC(C)(C)C)C4CCC4)C(C)=C1C3(C)C)[C@]1(OC(C)=O)CO[C@@H]1C[C@@H]2O` [Compound 1044], the IC50 is under 1 nM. Same read-out and setting: next, `CC(=O)OC12COC1CC(O)C1(C)C(=O)C(OC(=O)C3CC3)C3=C(C)C(OC(=O)C(O)C(NC(=O)OCC(C)C)c4ccsc4)CC(O)(C(OC(=O)c4ccccc4)C21)C3(C)C` (centres unmarked) [Compound 5011]: under 10 nM.

On to `CC(=O)OC12COC1CC(O)C1(C)C(=O)C(OC(=O)C(C)C)C3=C(C)C(OC(=O)C(O)C(NC(=O)OC(C)(C)C)C4CCC4)CC(O)(C(OC(=O)c4ccccc4)C21)C3(C)C` (centres unmarked) [Compound 2319], for which the IC50 is under 10 nM. The same measure, in the same setting: next, `CC(=O)O[C@@]12CO[C@@H]1C[C@H](O)[C@@]1(C)C(=O)[C@H](OC(=O)c3ccco3)C3=C(C)[C@@H](OC(=O)[C@H](O)[C@@H](NC(=O)OC(C)(C)C)c4ccco4)C[C@@](O)([C@@H](OC(=O)c4ccccc4)[C@H]21)C3(C)C` [Compound 2142]: under 1 nM; `CCCC(=O)OC1C(=O)C2(C)C(O)CC3OCC3(OC(C)=O)C2C(OC(=O)c2ccccc2)C2(O)CC(OC(=O)C(O)C(C=C(C)C)NC(=O)OCC(C)C)C(C)=C1C2(C)C` (centres unmarked) [Compound 5144]: under 10 nM. On the same count and under the same terms, next, `CCCC(=O)O[C@H]1C(=O)[C@@]2(C)[C@H]([C@H](OC(=O)c3ccccc3)[C@]3(O)C[C@H](OC(=O)[C@H](O)[C@@H](NC(=O)OC(C)(C)C)C4CC4)C(C)=C1C3(C)C)[C@]1(OC(C)=O)CO[C@@H]1C[C@@H]2O` [Compound 1020]: under 1 nM; `CCC(=O)O[C@H]1C(=O)[C@@]2(C)[C@H]([C@H](OC(=O)c3ccccc3)[C@]3(O)C[C@H](OC(=O)[C@H](O)[C@@H](NC(=O)c4cccs4)c4cccs4)C(C)=C1C3(C)C)[C@]1(OC(C)=O)CO[C@@H]1C[C@@H]2O` [Compound 3425]: under 1 nM; `CC(=O)O[C@@]12CO[C@@H]1C[C@H](O)[C@@]1(C)C(=O)[C@H](OC(=O)C3CC3)C3=C(C)[C@@H](OC(=O)[C@H](O)[C@@H](NC(=O)c4ccccc4)c4ccoc4)C[C@@](O)([C@@H](OC(=O)c4ccccc4)[C@H]21)C3(C)C` [Compound 2826]: under 1 nM. The same measure, in the same setting: in the case of `CC(=O)O[C@@]12CO[C@@H]1C[C@H](O)[C@@]1(C)C(=O)[C@H](OC(=O)C3CC3)C3=C(C)[C@@H](OC(=O)[C@H](O)[C@@H](NC(=O)c4cccnc4)c4cccs4)C[C@@](O)([C@@H](OC(=O)c4ccccc4)[C@H]21)C3(C)C` [Compound 4112] it was under 10 nM; in that of `CCC(=O)O[C@H]1C(=O)[C@@]2(C)[C@H]([C@H](OC(=O)c3ccccc3)[C@]3(O)C[C@H](OC(=O)[C@H](O)[C@@H](NC(=O)OCC(C)C)C4CC4)C(C)=C1C3(C)C)[C@]1(OC(C)=O)CO[C@@H]1C[C@@H]2O` [Compound 4799], under 1 nM.

In the case of `CCCC(=O)O[C@H]1C(=O)[C@@]2(C)[C@H]([C@H](OC(=O)c3ccccc3)[C@]3(O)C[C@H](OC(=O)[C@H](O)[C@@H](NC(=O)c4ccccc4)c4ccco4)C(C)=C1C3(C)C)[C@]1(OC(C)=O)CO[C@@H]1C[C@@H]2O` [Compound 3204], the IC50 was under 1 nM. The same measure, in the same setting: in the case of `CCC(=O)O[C@H]1C(=O)[C@@]2(C)[C@H]([C@H](OC(=O)c3ccccc3)[C@]3(O)C[C@H](OC(=O)[C@H](O)[C@H](C=C(C)C)NC(=O)c4ccccc4)C(C)=C1C3(C)C)[C@]1(OC(C)=O)CO[C@@H]1C[C@@H]2O` [Compound 0625] it was under 1 nM; in that of `CCC(=O)O[C@H]1C(=O)[C@@]2(C)[C@H]([C@H](OC(=O)c3ccccc3)[C@]3(O)C[C@H](OC(=O)[C@H](O)[C@@H](NC(=O)OC(C)(C)C)c4cccnc4)C(C)=C1C3(C)C)[C@]1(OC(C)=O)CO[C@@H]1C[C@@H]2O` [Compound 0517], under 10 nM.

Turning to `CCC(=O)O[C@H]1C(=O)[C@@]2(C)[C@H]([C@H](OC(=O)c3ccccc3)[C@]3(O)C[C@H](OC(=O)[C@H](O)[C@@H](NC(=O)c4ccccc4)c4ccncc4)C(C)=C1C3(C)C)[C@]1(OC(C)=O)CO[C@@H]1C[C@@H]2O` [Compound 0659], the IC50 is under 1 nM.

On to `CCC(=O)O[C@H]1C(=O)[C@@]2(C)[C@H]([C@H](OC(=O)c3ccccc3)[C@]3(O)C[C@H](OC(=O)[C@H](O)[C@@H](NC(=O)c4cccs4)c4ccco4)C(C)=C1C3(C)C)[C@]1(OC(C)=O)CO[C@@H]1C[C@@H]2O` [Compound 3644], for which the IC50 is under 1 nM. Still for that read-out and setting: next, `CCCC(=O)O[C@H]1C(=O)[C@@]2(C)[C@H]([C@H](OC(=O)c3ccccc3)[C@]3(O)C[C@H](OC(=O)[C@H](O)[C@@H](NC(=O)OCC(C)C)c4ccsc4)C(C)=C1C3(C)C)[C@]1(OC(C)=O)CO[C@@H]1C[C@@H]2O` [Compound 4834]: under 10 nM. Consider `CC(=O)O[C@@]12CO[C@@H]1C[C@H](O)[C@@]1(C)C(=O)[C@H](OC(=O)C3CC3)C3=C(C)[C@@H](OC(=O)[C@H](O)[C@@H](NC(=O)C=C(C)C)c4cccs4)C[C@@](O)([C@@H](OC(=O)c4ccccc4)[C@H]21)C3(C)C` [Compound 4329], for which the IC50 is under 1 nM. Same read-out and setting: next, `CC(=O)OC12COC1CC(O)C1(C)C(=O)C(OC(=O)C(C)C)C3=C(C)C(OC(=O)C(O)C(NC(=O)OC(C)(C)C)c4ccoc4)CC(O)(C(OC(=O)c4ccccc4)C21)C3(C)C` (centres unmarked) [Compound 2273]: under 1 nM.

For the compound `CCCC(=O)O[C@H]1C(=O)[C@@]2(C)[C@H]([C@H](OC(=O)c3ccccc3)[C@]3(O)C[C@H](OC(=O)[C@H](O)[C@@H](NC(=O)OCC(C)C)c4ccoc4)C(C)=C1C3(C)C)[C@]1(OC(C)=O)CO[C@@H]1C[C@@H]2O` [Compound 4704], the IC50 is under 10 nM.

With `CC(=O)O[C@@]12CO[C@@H]1C[C@H](O)[C@@]1(C)C(=O)[C@H](OC(=O)c3ccco3)C3=C(C)[C@@H](OC(=O)[C@H](O)[C@@H](NC(=O)OC(C)(C)C)c4ccccn4)C[C@@](O)([C@@H](OC(=O)c4ccccc4)[C@H]21)C3(C)C` [Compound 2111], the IC50 is under 1 nM. The same measure, in the same setting: in the case of `CCC(=O)O[C@H]1C(=O)[C@@]2(C)[C@H]([C@H](OC(=O)c3ccccc3)[C@]3(O)C[C@H](OC(=O)[C@H](O)[C@@H](NC(=O)c4ccccc4)C(C)C)C(C)=C1C3(C)C)[C@]1(OC(C)=O)CO[C@@H]1C[C@@H]2O` [Compound 0719] it was under 10 nM. Same read-out and setting: next, `CC(=O)O[C@@]12CO[C@@H]1C[C@H](O)[C@@]1(C)C(=O)[C@H](OC(=O)C3CC3)C3=C(C)[C@@H](OC(=O)[C@H](O)[C@@H](NC(=O)c4ccccc4)C4CC4)C[C@@](O)([C@@H](OC(=O)c4ccccc4)[C@H]21)C3(C)C` [Compound 0923]: under 1 nM; `CCC(=O)O[C@H]1C(=O)[C@@]2(C)[C@H]([C@H](OC(=O)c3ccccc3)[C@]3(O)C[C@H](OC(=O)[C@H](O)[C@@H](NC(=O)c4ccco4)c4cccs4)C(C)=C1C3(C)C)[C@]1(OC(C)=O)CO[C@@H]1C[C@@H]2O` [Compound 3053]: under 1 nM.
